In US5220008A, “Oligosaccharide inhibitors for influenza virus” (priority 1991, dated 1993):

Tested on: influenza virus (A/Aichi/2/68)
Test: Inhibition of Influenza Virus Adsorbtion to Erythrocytes (hemagglutination of resialylated human erythrocytes)
Settings: relative to Me αDNeuAc = 1.0 (Table 8)
Text: The heptasaccharides can be evaluated as inhibitors of the influenza virus hemagglutination of the resialylated human erythrocytes.
^a Inhibition of influenza virus (A/Aichi/2/68) to resialylated

Structure (SMILES) | Relative Potency
COC(=O)CCCCCOC1OC(CO)C(O)C(OC2OC(CO)C(OC3OC(COC4(C(=O)O)CC(O)C(NC(C)=O)C(C(O)C(O)CO)O4)C(O)C(O)C3O)C(O)C2NC(C)=O)C1OC1OC(CO)C(OC2OC(COC3(C(=O)O)CC(O)C(NC(C)=O)C(C(O)C(O)CO)O3)C(O)C(O)C2O)C(O)C1NC(C)=O [Example 27, 5-(Methoxycarbonyl)pentyl 2,3-di-O-{5-acetamido-3,5-dideoxy-D-glycero-D-galacto-2-nanulopyranosylonic acid(2→6)-β-D-galactopyranosyl(1→4)-2-acetamido-2-deoxy-β-D-glucopyranosyl}-β-D-galactopyranoside] | 7.2
COC(=O)CCCCCOC1OC(CO)C(OC2OC(CO)C(OC3OC(COC4(C(=O)O)CC(O)C(NC(C)=O)C(C(O)C(O)CO)O4)C(O)C(O)C3O)C(O)C2NC(C)=O)C(O)C1OC1OC(CO)C(OC2OC(COC3(C(=O)O)CC(O)C(NC(C)=O)C(C(O)C(O)CO)O3)C(O)C(O)C2O)C(O)C1NC(C)=O [Example 28, 5-(Methoxycarbonyl)pentyl 2,4-di-O-{5-acetamido-3,5-dideoxy-D-glycero-D-galacto-2-nanulopyranosylonic acid(2→6)-β-D-galactopyranosyl(1→4)-2--acetamido-2-deoxy-β-D-glucopyranosyl}-β-D-galactopyranoside] | 1.5
COC(=O)CCCCCOC1OC(CO)C(OC2OC(CO)C(OC3OC(CO)C(O)C(O)C3O)C(O)C2NC(C)=O)C(O)C1OC1OC(CO)C(OC2OC(COC3(C(=O)O)CC(O)C(NC(C)=O)C(C(O)C(O)CO)O3)C(O)C(O)C2O)C(O)C1NC(C)=O [Example 28A, 5-(methoxycarbonyl)pentyl 2-O-[5-acetamido-3,5-dideoxy-D-glycero-D-galactononulopyranosylonic acid (2→6)-β-D-galactopyranosyl-(1→4)-2-acetamido-2-deoxy-D-glycopyranosyl]-4-O-[β-D-galactopyranosyl-(1→4)-2-acetamido-2-deoxy-D-glucopyranosyl]-β-D-galactopyranoside] | 1.9
COC(=O)CCCCCOC1OC(COC2OC(CO)C(OC3OC(COC4(C(=O)O)CC(O)C(NC(C)=O)C(C(O)C(O)CO)O4)C(O)C(O)C3O)C(O)C2NC(C)=O)C(O)C(OC2OC(CO)C(OC3OC(COC4(C(=O)O)CC(O)C(NC(C)=O)C(C(O)C(O)CO)O4)C(O)C(O)C3O)C(O)C2NC(C)=O)C1O [Example 30, 5-(Methoxycarbonyl)pentyl 3,6-di-O-{5-acetamido-3,5-dideoxy-D-glycero-D-galacto-2-nanulopyranosylonic acid(2→6)-β-galactopyranosyl(1→4)-2-acetamido-2-deoxy-β-D-glucopyranosyl}-β-D-galactopyranoside] | 8.4
